# Experimental data reported in US8445691B2, “Heterocyclic thiosubstituted alkanol derivatives” (Bayer CropScience AG, priority 2010, dated 2013).
# “And” between values parts separate entries of the source, which are not always exact repeats. Equal entries are not always repeated.
# System: Sphaerotheca fuliginea
# Test: Sphaerotheca test (cucumber) / protective
# Type: in vivo
# Settings: 500 ppm active ingredient, protective spray on young cucumber plants, evaluation 7 days after inoculation; 0% = control, 100% = no infection
# Method: Sphaerotheca Test (Cucumber)/Protective
# (§1) • Solvent: 49 parts by weight of N,N-dimethylformamide • Emulsifier: 1 part by weight of alkylaryl polyglycol ether
# To produce an appropriate active ingredient formulation, 1 part by weight of active ingredient is mixed with the specified amounts of solvent and emulsifier, and the concentrate is diluted with water to the desired concentration. To test for protective activity, young cucumber plants are sprayed with the formulation of active ingredient at the stated application rate. 1 day after the treatment, the plants are inoculated with a spore suspension of Sphaerotheca fuliginea. The plants are then placed in a greenhouse at 70% relative air humidity and a temperature of 23° C. Evaluation follows 7 days after the inoculation. 0% means an efficacy which corresponds to that of the control, whereas an efficacy of 100% means that no infection is observed.
row,SMILES,efficacy
1,CC(C)(C)C(O)(CSc1ccc(I)cc1)c1cncs1 (stereo not drawn) [Compound 2],95%
2,CC(C)C(O)(CSc1ccc(I)cc1)c1cncs1 (stereo not drawn) [Compound 6],80%
3,CC(C)(C)C(O)(CSc1ccc(Cl)cc1Cl)c1cncs1 (stereo not drawn) [Compound 11],80%
4,CC1(C(O)(CSc2ccc(I)cc2)c2cncs2)CCCCC1 (stereo not drawn) [Compound 13],89%
5,CC(C)(C)C(O)(CSc1ccc(Cl)c(Cl)c1)c1cncs1 (stereo not drawn) [Compound 38],80% and 90%

# System: not listed separately
# Test: logP by reversed-phase HPLC (EEC Directive 79/831 Annex V.A8)
# Type: physicochemical
# Settings: method [a]: LC-MS, acidic range pH 2.7, 0.1% aqueous formic acid / acetonitrile, linear gradient 10% to 95% acetonitrile, C18 reversed phase
# Method: The logP values were measured in accordance with EEC Directive 79/831 Annex V.A8 by HPLC (High Performance Liquid Chromatography) using reversed-phase columns (C 18) by the following methods:
# [a] The LC-MS determination in the acidic range is effected at pH 2.7 with 0.1% aqueous formic acid and acetonitrile (contains 0.1% formic acid) as eluents; linear gradient from 10% acetonitrile to 95% acetonitrile.
row,SMILES,logP
1,CC(C)(C)C(O)(CSc1ccc(Cl)s1)c1cncs1 (stereo not drawn) [Compound 4],logP 3.68^[a]; [M]^+ = 334.
2,CC(C)(C)C(O)(CSCc1ccc(Cl)cc1Cl)c1cncs1 (stereo not drawn) [Compound 10],logP 4.29^[a]; [M]^+ = 375.
3,CC(C)(C)C(O)(CSc1ccc(Cl)cc1Cl)c1cncs1 (stereo not drawn) [Compound 11],logP 3.96^[a]; [M]^+ = 361.
4,Cc1ccc(SCC(O)(c2cncs2)C(C)(C)C)cc1 (stereo not drawn) [Compound 12],logP 3.63^[a]; [M]^+ = 307.
5,CC(C)Oc1ccc(SCC(O)(c2cncs2)C2(C)CCCCC2)cn1 (stereo not drawn) [Compound 16],logP 4.70^[a]; [M]^+ = 393.
6,CC(C)(C)C(O)(CSc1ccc(Cl)cc1)c1cncs1 (stereo not drawn) [Compound 17],log p 3.64^[a]
7,COc1ccc(SCC(O)(c2cncs2)C(C)(C)C)cc1 (stereo not drawn) [Compound 18],log p 3.16^[a]
8,CC(C)(C)c1ccc(SCC(O)(c2cncs2)C(C)(C)C)cc1 (stereo not drawn) [Compound 19],log p 3.7^[a]
9,CC(C)(C)C(O)(CSc1cccc(Br)c1)c1cncs1 (stereo not drawn) [Compound 20],log p 3.74^[a]
10,CC(C)(C)C(O)(CSc1ccccc1Br)c1cncs1 (stereo not drawn) [Compound 21],log p 3.5^[a]
11,Cc1ccc([S+]([O-])CC(O)(c2cncs2)C(C)(C)C)c(C)c1 (stereo not drawn) [Compound 23],log p 2.92^[a]
12,CC(C)C(O)(CSc1nncn1-c1c(F)cccc1F)c1cncs1 (stereo not drawn) [Compound 24],log p 1.8^[a]
13,CC(C)C(O)(CSc1nncn1-c1ccccc1)c1cncs1 (stereo not drawn) [Compound 25],log p 1.76^[a]
14,CC(C)(C)C(O)(CSC1CCCCC1)c1cncs1 (stereo not drawn) [Compound 26],log p 4.17^[a]
15,CC(C)(C)C(O)(CSc1ccccc1Br)c1cnc(Sc2ccccc2Br)s1 (stereo not drawn) [Compound 27],log p 5.78^[a]
16,Cc1ccc(SCC(O)(c2cncs2)C(C)(C)C)c(C)c1 (stereo not drawn) [Compound 28],log p 4.02^[a]
17,CC(C)C(O)(CSc1nncn1C1CCCCC1)c1cncs1 (stereo not drawn) [Compound 31],log p 2.04^[a]
18,CC(C)(C)C(O)(CSc1ccc2ccccc2c1)c1cncs1 (stereo not drawn) [Compound 35],log p 3.92^[a]
19,CC(C)(C)C(O)(CSc1cccc2ccccc12)c1cncs1 (stereo not drawn) [Compound 36],log p 3.87^[a]

row,SMILES,logP
1,Cc1ccc(SCC(O)(c2cncs2)C(C)(C)C)cc1 (stereo not drawn) [Compound 37],log p 3.63^[a]
2,CC(C)(C)C(O)(CSc1ccc(Cl)c(Cl)c1)c1cncs1 (stereo not drawn) [Compound 38],log p 4.05^[a]
3,CC(C)(C)C(O)(CSc1cccc(Oc2ccccc2)c1)c1cncs1 (stereo not drawn) [Compound 39],log p 4.33^[a]
4,CC(C)(C)C(O)(CSc1ccc(C(=O)NC2CC2)cc1Cl)c1cncs1 (stereo not drawn) [Compound 40],log p 2.54^[a]
5,COC(=O)c1ccc(SCC(O)(c2cncs2)C(C)(C)C)cc1 (stereo not drawn) [Compound 41],log p 3.01^[a]
6,CC(=O)c1ccccc1SCC(O)(c1cncs1)C(C)(C)C (stereo not drawn) [Compound 42],log p 2.66^[a]
7,CC(C)(C)C(O)(CSc1cc(C(F)(F)F)ccc1Cl)c1cncs1 (stereo not drawn) [Compound 43],log p 4.02^[a]
8,CC(C)(C)C(O)(CSc1ccc(-c2ccccc2)cc1)c1cncs1 (stereo not drawn) [Compound 44],log p 4.39 ^[a]
9,CCOC(=O)c1ccc(SCC(O)(c2cncs2)C(C)(C)C)c(C)c1 (stereo not drawn) [Compound 45],log p 3.7 ^[a]
10,CC(Oc1ccc(SCC(O)(c2cncs2)C(C)(C)C)cc1)C(C)(C)C (stereo not drawn) [Compound 46],log p 5.53^[a]
11,CC(C)(C)C(O)(CSc1ccc(F)cc1F)c1cncs1 (stereo not drawn) [Compound 47],log p 3.26^[a]
12,CC(C)(C)C(=O)Nc1ccc(SCC(O)(c2cncs2)C(C)(C)C)cc1 (stereo not drawn) [Compound 48],log p 3.14^[a]
13,CC(=O)c1ccc(SCC(O)(c2cncs2)C(C)(C)C)c(Cl)c1 (stereo not drawn) [Compound 49],log p 2.91^[a]
14,CC(C)(C)C(O)(CSc1ccc(F)c(F)c1)c1cncs1 (stereo not drawn) [Compound 50],log p 3.3^[a]
15,CSc1ccc(SCC(O)(c2cncs2)C(C)(C)C)cc1 (stereo not drawn) [Compound 51],log p 3.59^[a]
16,CCOC(=O)c1ccc(SCC(O)(c2cncs2)C(C)(C)C)cc1 (stereo not drawn) [Compound 52],log p 3.41^[a]
17,CC(C)(C)C(O)(CSc1ccc(C(=O)c2ccccc2)cc1)c1cncs1 (stereo not drawn) [Compound 53],log p 3.66^[a]
18,CC(=O)Nc1cccc(SCC(O)(c2cncs2)C(C)(C)C)c1 (stereo not drawn) [Compound 54],log p 2.15^[a]
19,CCc1cccc(C)c1SCC(O)(c1cncs1)C(C)(C)C (stereo not drawn) [Compound 55],log p 4.41^[a]

row,SMILES,logP
1,CCc1cccc(CC)c1SCC(O)(c1cncs1)C(C)(C)C (stereo not drawn) [Compound 56],log p 4.78^[a]
2,CC(C)(C)C(O)(CSc1cc(C(F)(F)F)cc(C(F)(F)F)c1)c1cncs1 (stereo not drawn) [Compound 58],log p 4.37^[a]
3,CC(C)(C)C(O)(CSc1cc(Cl)cc(Cl)c1)c1cncs1 (stereo not drawn) [Compound 59],log p 4.18^[a]
4,CC(C)(C)C(O)(CSc1cccc(Cl)c1Cl)c1cncs1 (stereo not drawn) [Compound 60],log p 3.76^[a]
5,CC(C)(C)C(O)(CSc1cccc(C(F)(F)F)c1)c1cncs1 (stereo not drawn) [Compound 61],log p 3.74^[a]
6,CC(C)(C)C(O)(CSc1cc(Cl)c(Cl)cc1Cl)c1cncs1 (stereo not drawn) [Compound 62],log p 4.41^[a]
7,Cc1cccc(SCC(O)(c2cncs2)C(C)(C)C)c1 (stereo not drawn) [Compound 63],log p 3.57^[a]
8,Cc1ccccc1SCC(O)(c1cncs1)C(C)(C)C (stereo not drawn) [Compound 64],log p 3.52^[a]
9,CC(C)(C)C(O)(CSc1ccc(F)cc1)c1cncs1 (stereo not drawn) [Compound 65],log p 3.21^[a]
10,CC(=O)Nc1ccc(SCC(O)(c2cncs2)C(C)(C)C)cc1 (stereo not drawn) [Compound 66],log p 2.13^[a]
11,COC(=O)c1ccccc1SCC(O)(c1cncs1)C(C)(C)C (stereo not drawn) [Compound 67],log p 2.95^[a]
12,Cc1cc(C)cc(SCC(O)(c2cncs2)C(C)(C)C)c1 (stereo not drawn) [Compound 68],log p 4.06^[a]
13,CCc1ccccc1SCC(O)(c1cncs1)C(C)(C)C (stereo not drawn) [Compound 69],log p 3.9^[a]
14,Cc1ccc(C)c(SCC(O)(c2cncs2)C(C)(C)C)c1 (stereo not drawn) [Compound 70],log p 3.98^[a]
15,CC(C)(C)C(O)(CSc1ccccc1Cl)c1cncs1 (stereo not drawn) [Compound 71],log p 3.37^[a]
16,CC(C)(C)C(O)(CSc1cccc(Cl)c1)c1cncs1 (stereo not drawn) [Compound 72],log p 3.59^[a]
17,CC(C)(C)C(O)(CSc1ccccc1)c1cncs1 (stereo not drawn) [Compound 73],log p 3.8^[a]
18,CC(C)(C)C(O)(CSc1cc(Cl)ccc1Cl)c1cncs1 (stereo not drawn) [Compound 74],log p 3.83^[a]

# System: Alternaria solani
# Test: Alternaria test (tomato) / protective
# Type: in vivo
# Settings: 500 ppm active ingredient, protective spray on young tomato plants, evaluation 7 days after inoculation; 0% = control, 100% = no infection
# Method: Alternaria Test (Tomato)/Protective
# as §1
# To produce an appropriate active ingredient formulation, 1 part by weight of active ingredient is mixed with the specified amounts of solvent and emulsifier, and the concentrate is diluted with water to the desired concentration. To test for protective activity, young tomato plants are sprayed with the active ingredient formulation at the stated application rate. One day after the treatment, the plants are inoculated with a spore suspension of Alternaria solani and are then left to stand at 100% relative humidity and 22° C. for 24 h. Subsequently, the plants are left to stand at 96% relative air humidity and a temperature of 20° C. Evaluation follows 7 days after the […]. 0% means an efficacy which corresponds to that of the control, whereas an efficacy of 100% means that no infection is observed.
row,SMILES,efficacy
1,CC(C)(C)C(O)(CSc1ccc(I)cc1)c1cncs1 (stereo not drawn) [Compound 2],86%
2,CC(C)(C)C(O)(CSc1ccc(Cl)cc1Cl)c1cncs1 (stereo not drawn) [Compound 11],99%
3,CC1(C(O)(CSc2ccc(I)cc2)c2cncs2)CCCCC1 (stereo not drawn) [Compound 13],99%
4,CC(C)Oc1ccc(SCC(O)(c2cncs2)C2(C)CCCCC2)cn1 (stereo not drawn) [Compound 16],94%
5,CC(C)(C)C(O)(CSc1ccc(Cl)cc1)Cc1cncs1 (stereo not drawn) [Compound 34],99%
6,CC(C)(C)C(O)(CSc1ccc(Cl)c(Cl)c1)c1cncs1 (stereo not drawn) [Compound 38],75%
7,CC(C)(C)C(O)(CSc1ccc(-c2ccccc2)cc1)c1cncs1 (stereo not drawn) [Compound 44],100%
8,CC(C)(C)C(O)(CSc1cccc(Cl)c1Cl)c1cncs1 (stereo not drawn) [Compound 60],94%
